Experimental data as given in patent publication EP3250181B1, “MINOXIDIL-BASED PHARMACEUTICAL FORMULATION FOR THE TOPICAL USE AND KIT THEREOF” (Farmalabor S.r.l., priority 2014, dated 2016).

Tests used:
[1] = Stability, first study: real storage conditions, HPLC; details: formulation A, room temperature, both in the presence and in the absence of light
[2] = Stability, second study: cold-warm cycle in climate room for 60 hours; details: formulation A, 4°C/25°C/40°C cycle, dark or UV/Vis light

stability of Minoxidil in the gel [1]: stable in the gel for 5 weeks
SMILES: Nc1cc(N2CCCCC2)nc(N)[n+]1[O-] [Minoxidil]
chemical stability after cold-heat shock [2]: chemical stability of Minoxidil into the gel also after a cold-heat shock
